These results are taken from patent US5552267A, “Solution for prolonged organ preservation” (priority 1994, dated 1996).

One data set has as its system vascular smooth muscle. Conditions: cited from earlier work.
The subject of data set [1] is heart. Kind of data set: heterotopic rat heart transplant model, First Series Experiment One (heart survival rate, heart transplant index). The data set is classed as in vivo, rat (male Sprague-Dawley). To be noted: in place of db cAMP, 24 hr.
Data set [2] has as its system heart. Kind of data set: heterotopic rat cardiac transplant, cAMP series, graft survival/score. The format is in vivo, rat (male Sprague-Dawley). The source says: Preservation solutions included lactated Ringer's (LR) solution Baxter, Edison, N.J.), or LR supplemented with rolipram ZK 62 711, Schering AG, Berlin, Germany), indolidan LY195115, Lilly Research Laboratories, Indianapolis, Ind.), sodium butyrate, 8-bromoadenosine, 8-bromoadenosine 3',5'monophosphate (8-Br-cAMP; Sigma Chemical Co., St. Louis, Mo.), the Rp -isomer of adenosine 3',5'monophosphorothioate (Rp -cAMPS; Biolog, La Jolla, Calif.), the Sp isomer of adenosine 3',5'monophosphorothioate (Sp -cAMPS; Biolog), and N^6,O^2' -dibutyryl adenosine 3',5'monophosphate sodium (db-cAMP; Aldrich, Milwaukee, Wis.). Components were combined within 4 hrs of donor cardiectomy, and preservation solutions were kept at 4° C. University of Wisconsin solution (UW)(2-4 was purchased from Dupont (Wilmington, Del.).
Donor Cardiectomy. Male Sprague-Dawley rats (350-450 grams, Camm Research, Wayne, N.J.) were anesthetized, heparinized (1000 units of heparin given intravenously), and the donor heart removed in the following manner; a midline incision was performed, followed by rapid cardioplegic arrest with 5 ml of cold (4° C.), high potassium solution (NACl, 0.9%, and KCl, 40 mEq/L). The heart was maintained at 4° C. throughout the harvest procedure by the application of a cold saline soaked gauze over its surface. […] The aortic root was flushed with ≈15 ml of the cold preservation solution until the coronary arteries became visibly clear, and the heart remained in the cold storage solution for the indicated duration until the time of transplantation.
Heterotopic Transplant. The same breed/size of rat was used, and similarly anesthetized, but not given heparin. A midline abdominal incision was made, and the infrarenal aorta and vena cava were occluded with a side-biting vascular clamp and longitudinal incisions were made in each vessel. The donor heart was removed from the preservation solution and kept moist with saline-soaked gauze. […] Blood flow was restored to the graft (by removal of the clamp) exactly one hour after removal from the cold preservation solution. […] Ten minutes after removal of the cross-clamp, an electrocardiogram was taken (Grass Polygraph, Quincy, Mass.) and the heart was judged by the same blinded investigators throughout based on the presence/absence of regular contractions and a transplant score (0-5, worst-best, respectively) employing the following criteria: contraction (poor=0, average=1, vigorous=2), tissue turgor (hard=0, average=1, soft=2), and color (dusky=0, pink=1). […] The heterotopic cardiac transplant experiments performed in these studies were done by a single surgeon after establishment of this model and acquisition of surgical expertise, with control and experimental groups interspersed throughout the study period to prevent a time-dependent bias pertaining to surgical skills.
Statistics. Graft survival data and transplant scores were analyzed using the Kruskal-Wallis non-parametric analysis of variance (38). Comparisons of individual treatments were performed using the procedure described by Dunn (39). In addition, the effect of db-cAMP on the time-course of graft failure was quantified by multivariate logistic regression. Graft myeloperoxidase data, microsphere data, and cAMP/adenylate cyclase/phosphodiesterase data from experiments with cultured vascular smooth muscle cells were analyzed by t-tests when 2 treatments were performed or by analysis of variance when 3 or more treatments were performed. In the latter case, post-hoc comparison of treatment groups were tested using Tukey's procedure. Values are expressed as means ±SEM, with a p <0.05 considered statistically significant.

For data set [3], the system named is myocardial infarct / neutrophils. To be noted: canine ischemia/reperfusion; cited from earlier work.
Data set [4] in a line: in vitro toxicity to endothelial cells. The format is cell-based. To be noted: data not shown, read-out: concentration toxic to endothelial cells.
In data set [5] the test system is cardiac graft vasculature. In words: graft blood flow by latex microspheres, cAMP series. The format is in vivo, rat. Here is the method: Perfusion of Donor Graft. Ten minutes after restoration of blood flow, a suspension of latex microspheres (0.5 ml of 10 μm diameter microspheres at a final concentration in 10^6 /ml in phosphate-buffered saline containing Tween 80, 0.05%) (E-Z Trac, Los Angeles, Calif.) was injected over 30 seconds into the donor aortic root. After one minute, the heart was rapidly excised, rinsed free of intracavitary and surface blood, and the atria and great vessels were removed. The ventricles were cut into pieces, each piece weighed, and then digested by alkaline hydrolysis, centrifuged and washed according to the manufacturer's instructions. Beads in each piece were then counted in an Improved Neubauer hemocytometer VWR Scientific, Piscataway, N.J.). Results are expressed as number of spheres per (40X) field per gram of ventricle. A minimum of ten fields were counted and the mean ± SEM is reported.

The test system of data set [6] is neutrophil infiltration of cardiac graft. In words: graft myeloperoxidase activity/histology (leukocyte infiltration), cAMP series. The format is in vivo, rat. Here is the method:
Myeloperoxidase assay/histology. Ten minutes following restoration of blood flow, transplanted hearts were excised and the aortic root was flushed for 5 minutes (rate of 2 ml/minute controlled by roller pump) with normal saline (Baxter, Edison, N.J.), the atria and great vessels were removed, and intracavitary blood was evacuated. Remaining ventricular pieces were weighed, and homogenized in phosphate buffer (50 mM; pH 7.4, 5 ml/gm of tissue) containing hexadecyltrimethylammonium bromide (0.5%; HTAB, [Sigma]) and frozen at -80° C. The myeloperoxidase assay was performed, as described (29), by thawing the sample, centrifuging at 40,000 g for 10 minutes at 4° C., and decanting the supernatant, which was assayed for myeloperoxidase activity using standard chromogenic spectrophotometric technique: test sample (0.1 ml) was added to phosphate buffer (50 mM; pH 6.0) containing O-dianisidine dihydrochloride (Sigma), hydrogen peroxide (0.0005%), and change in absorbance at 460 nm was measured over 5 min (increase in OD was linear over this time interval). For histologic study, cardiac graft samples were fixed in an ascending series of aldehydes, embedded, sectioned, and stained with hematoxylin and eosin.

In data set [7] the test system is lung. To be noted: in vivo; cited from earlier work.
For data set [8], the system named is lung. Kind of data set: orthotopic rat left lung transplantation, nitroglycerin series. The format is in vivo, rat (male Lewis).
In a further data set the test system is pulmonary vasculature. Conditions: in vivo; cited from earlier work.
The next data set deals with HUVECs / platelets. In words: NO by inhibition of thrombin-induced platelet aggregation and serotonin release by ECs. The format is cell-based, human. Conditions: normoxic ECs (hemoglobin); hypoxia 16 h + reoxygenated ECs (SOD, BHT).
The test system of data set [9] is nitric oxide production in heart. Kind of data set: direct measurement of coronary vascular and endocardial NO with porphyrinic microsensor. Also on record: species or system rat. To be noted: transplanted hearts. Here is the method: Direct measurement of coronary vascular and endocardial nitric oxide synthesis were made with a porphyrinic microsensor^13 using differential pulse voltammetry or amperometry. Rat hearts were explanted and preserved as described above, and studied fresh (no preservation/transplantation) or after hypothermic preservation in lactated Ringer's (LR) solution, heterotopic transplantation, and 10 minutes of reperfusion. The coronary vasculature was flushed free of blood with LR followed by 4 ml of LR supplemented with L-Arg (2 mM) and bradykinin ([…], Sigma), which was recycled (1 ml/min) through the coronary vasculature by flushing down the cross-clamped aortic root. Aliquots of perfusate were immediately transferred to an anaerobic environment for measurements and compared to an aqueous nitric oxide reference. Differential pulse voltammograms were obtained using a sensor (working electrode), saturated calomel electrode reference, and platinum wire-auxiliary electrode, with a pulse amplitude of 40 mV. Endocardial NO was measured by implanting the sensor in the septal endocardium of a freshly explanted or preserved/transplanted heart, and after the baseline stabilization, […] bradykinin was applied and NO release continuously monitored by amperometry at constant potential of 0.63 V.

The subject of data set [10] is nitric oxide in lung tissue. Kind of data set: ex vivo pulmonary NO with porphyrinic microsensor. Also on record: species or system rat. Here is the method:
Direct measurement of pulmonary NO production was made using a porphyrinic microsensor^30 and differential pulse voltammetry. Pieces of rat lung of equal weight (40±4 mg) were harvested following 6 hrs of hypothermic preservation in LR alone, or 6 hrs of preservation followed by orthotopic transplantation and 30 minutes of reperfusion as described above. These pieces were placed in a vial containing 2 mL of LR and equilibrated to 37° C. under ambient conditions. Differential pulse voltammograms (current [proportional to NO concentration] versus potential) with pulse amplitude of 40 mV were obtained with a sensor placed on the tissue surface. A saturated calomel reference electrode (SCE) and platinum wire (auxiliary electrode) were immersed in the LR solution. The sensor is a working electrode at which oxidation of NO occurs, resulting in an electric current (which flows between working and auxiliary electrodes). The reference electrode is used to monitor the potential of the working electrode. NO concentrations measured ex vivo have been normalized, and are reported as per 40 mg of tissue. An aqueous NO solution prepared as previously described^31 was used to calibrate the sensor.

Data set [11] concerns nitric oxide at lung surface. In words: in vivo pulmonary NO with porphyrinic microsensor. Also on record: species or system rat. Here is the method:
Measurements of nitric oxide concentrations in vivo were performed with a two electrode system using a porphyrinic sensor as a working electrode and a platinum wire as an auxiliary/reference electrode. The porphyrinic sensor with a flexible base was lowered onto the exposed surface of the lung using a micromanipulator. A small piezoelectric signal (mechanically generated current) was used to indicate that the sensor had made contact with the tissue surface. NO measurements were begun once the flexible sensor assumed an L-shaped configuration on the tissue surface and the platinum wire was connected to adjacent tissue. Continous amperometric (current-time) measurements were obtained at a constant potential of 0.68 V, during the period of warm ischemia (after the lung was sewn in place but not yet reperfused) and continously as the vascular cross-clamp was released and reperfusion initiated. Topical application of the calcium ionophore (A23187, 9.5 μM; Sigma) and superoxide dismutase (100 U/ml; Sigma) was applied as monitoring was continued.

[12] abbreviates: lung preserved 6 h in LR, no reimplantation.

Protocol for HUVECs / platelets: Radiolabelled serotonin (^14 C-5-hydroxytryptamine, Amersham, Arlington Heights, Ill.) was incorporated into the platelets by adding 0.5 μCi during the blood collection process. Inhibition of cyclooxygenase was confirmed by the absence of aggregation to 1 mM sodium arachidonate.
HUVECs from fresh human umbilical veins were isolated and grown according to previously published methods^12, and used between the 3rd and 4th passages. HUVEC cyclooxygenase was inhibited with acetylsalicylic acid (1 mmol/L in M199 medium, incubated for 30 minutes at 37° C., and then washed twice with M199 to remove residual acetylsalicylic acid) immediately prior to collagenase digestion. […] An hypoxic environment was administered by placing cells in a specially designed airtight chamber (Coy Laboratory Products, Ann Arbor, Mich.) with a normobaric environment comprised of 90% N2, 5% H2, 5% CO2, and 0% O2. pO2 s of 15 Torr in the culture medium were achieved by the use of a palladium catalyst in the chamber to reduce any residual O2. All manipulations, including centrifugation and washing of cells (up to the final aggregometry, or reoxygenation phases as described), were performed within the hypoxia chamber. Reoxygenation was accomplished by removing an aliquot of washed and counted HUVECs in suspension to room air for the indicated duration.
Platelets were challenged with graded doses of α-thrombin (Sigma) to determine the concentration that caused maximal platelet aggregation (0.3 u/mL in all cases), and this dose was used for all further studies. […] Interference with light absorption was measured for 3 minutes to obtain platelet aggregation curves, after which the cuvette contents were placed on ice, centrifuged at 5,000 rpm for 5 minutes at 4° C., and 200 μL of supernatant was recovered and counted in a liquid scintillation counter to quantify ^14 C-serotonin release. […] Results are expressed as both aggregometry curves and as % maximal serotonin release as defined by thrombin challenge in the absence of ECs.

Take nitric oxide [NO]: the “minimal concentration relaxing vascular smooth muscle” value in the data set with vascular smooth muscle is given as “less than 15 nM”.

On to `CCCC(=O)[O-].[Na+]` [butyrate, sodium butyrate], for which, in the data set with heart [1], the “beneficial effect on cardiac preservation” value is recorded as “no such beneficial effect”. Further, the “effect on cardiac preservation” value with heart [2] (12 h in LR) was “consistently failed”.

As for `COc1ccc(C2CNC(=O)C2)cc1OC1CCCC1` (stereo not drawn) [rolipram], the “effect on cardiac preservation” value in the data set with heart [2] (12 h in LR) is “uniformly enhanced preservation”. For the same compound, in data set [3], the “myocardial infarct size” value was “does not limit myocardial infarct size” and the “neutrophil superoxide production in vitro / no-reflow” value is “significantly reduces neutrophil production of superoxide in vitro”.

With `Nc1ncnc2c1nc(Br)n2[C@@H]1O[C@H](CO)[C@@H](O)[C@H]1O` [8-bromoadenosine], the “beneficial effect on cardiac preservation” value in the data set with heart [1] is recorded as “no such beneficial effect”. For the same compound, the “effect on cardiac preservation” value with heart [2] (12 h in LR) is on record as “ineffective”.

Consider `CCCC(=O)Nc1ncnc2c1ncn2[C@@H]1O[C@@H]2COP(=O)(O)O[C@H]2[C@H]1OC(=O)CCC` [db-cAMP, N^6, O^2' -dibutyryl adenosine 3',5'monophosphate], for which the MCC in data set [4] was above 4 mM. Moreover, in the data set on heart [2] (12 h in LR), the “concentration for optimal/maximal preservation” value lay in the range of 1 to 2 mM. In addition, in the data set on heart [2] (12 h preservation in LR), the graft survival was 90%. Further, in data set [5] (12 h in LR, db-cAMP 2 mM vs LR alone), the “graft blood flow” value was “significant increase in blood flow”. Besides, in data set [5] (vs without db-cAMP), the “fold increase in graft blood flow” value is given as 5.5 fold. Further, the “fold decrease in neutrophil infiltration / myeloperoxidase activity” value in data set [6] (12 h, db-cAMP 2 mM in LR vs LR alone) turned out to be 3.2 fold. Also, the “PMNs in blood vessel by histology” value in [6] (12 h in LR, 10 min reperfusion, db-cAMP 2 mM where added) was “no PMNs”.

In the case of `NNc1nncc2ccccc12` [hydralazine], the “effect on lung preservation” value in the data set with lung [7] is recorded as “not proven beneficial in lung preservation”. Further, the “pulmonary artery flushing time” value in the data set on lung [8] (30 mL at constant pressure during harvest) was determined as 69.3 ± 4.5 s. The recipient survival in the data set with lung [8] (6 h in EC, 30 min, supplements NTG 0.1 mg/mL, hydralazine 0.02 μg/mL) was 33%.

As for `CCCOc1ccccc1-c1nc2[nH]nnc2c(=O)[nH]1` [M&B 22948, 2-o-propoxyphenyl-8-azapurin-6-one], in the data set with pulmonary vasculature, the “effect on vasodilators” value is given as “augments the pulmonary vasodilating effects of NO(cGMP)-dependent vasodilators, but not those of a cAMP-dependent vasodilator”.

“SOD: bovine erythrocyte superoxide dismutase”: the “effect on NO / platelet inhibition by ECs” value in the data set on HUVECs / platelets was “restore NO levels”. Besides, the “effect on NO levels” value in [9] is recorded as “levels augmented”. Moreover, the “fold increase in detectable NO with SOD” value in data set [10] (lung preserved 6 h in LR and reimplanted) is given as ~ 25 fold. In [10] (setting [12]), the “NO concentration with SOD” value is recorded as 300 nM and the “increase in NO with SOD” value was 50%. Further, in [11] (normal lung), the “increase in NO with SOD” value was 10% and the “local NO concentration with SOD” value turned out to be 720 ± 110 nM. Also, the “NO level with SOD during reperfusion” value in [11] (preserved 6 h in LR, transplanted, from ~25 nM) is listed as ~ 40 nM.
